Test results taken from US20070054902A1, “Isoxazole derivatives as peroxisome proliferator-activated receptors agonists” (SHIONOGI & CO., LTD., priority 2003, published 2007).

Assays:
human PPARδ (hPPARδ) = target: T1, human PPARδ (hPPARδ) (Homo sapiens, UniProt Q03181); experiment: Test for transcriptional activity of PPARδ (GAL4 chimeric transcription-factor reporter assay in CHO cells); type: cell-based; conditions: GAL4-hPPARδ LBD chimeric reporter in CHO cells
T1 construct: δ:aa 139-C-end; expressed in transfected cells
T1 sequence (Q03181 139-441 limits assumed): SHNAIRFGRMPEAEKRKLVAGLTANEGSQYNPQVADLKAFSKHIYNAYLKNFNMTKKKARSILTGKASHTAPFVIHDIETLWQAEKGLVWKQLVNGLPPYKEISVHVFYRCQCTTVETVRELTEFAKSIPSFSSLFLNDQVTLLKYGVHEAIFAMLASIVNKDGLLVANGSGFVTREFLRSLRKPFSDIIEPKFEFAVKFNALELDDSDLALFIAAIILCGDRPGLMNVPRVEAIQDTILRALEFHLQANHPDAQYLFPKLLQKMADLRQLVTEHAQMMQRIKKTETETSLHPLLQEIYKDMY
Description: A chimeric transcription-factor assay, which is commonly used to detect nuclear receptor activity, was employed to measure PPAR transcriptional activity. Specifically, two plasmids, one that expresses the fusion protein of DNA binding domain of yeast transcription factor GAL4 and a ligand binding domain of a receptor, and a reporter plasmid were transiently transfected to CHO cells. The activity of the promoter containing a recognition sequence of GAL4 coded on the reporter plasmid was used as a parameter to estimate the activity of the receptor.
Then, each obtained cDNA-fragment was subcloned into pBIND vector (Promega) to construct a plasmid expressing the fusion protein with DNA binding domain of yeast transcription factor. GAL4. pG51uc vector (Promega) was used as a reporter plasmid.
Cell culturing and transfection: CHO cells were cultured in 10% FBS-αMEM. With a 96-well plate (Costar), CHO cells, that were dispersed with trypsin treatment, 20000 cells per well and the two plasmids obtained by the above procedure, 25 ng per well, were transfected with FuGene Reagent (Roche) by following the instruction of the manufacture.
Measurement of the transcriptional activity: CHO cells 100 μl per well, which were transfected as above, were dispensed into the wells in which a test compound dissolved in DMSO 0.5 μl was spotted in advance. After the cells and a test compound were cultured together for 24 hours in a CO2 incubator, the luciferase activity was measured by adding luciferase substrates, PicaGene LT2.0 (Toyo ink) 100 μl per well. LUMINOUS CT9000D (DIA-IATRON) is used to measure the activity.

CYP2C9 = target: T2, CYP2C9 (Homo sapiens, UniProt P11712); experiment: Test for inhibition of CYP2C9 enzyme (tolbutamide 4-position hydration, human liver microsomes); type: in vitro ADME; conditions: pH 7.4, probe tolbutamide (14C labeled), 5 µM, human liver microsomes 0.25 mg/ml, 5 μM tolbutamide, 37° C., solvent control = 100%, read-out: Residual activity (%) CYP2C9
T2 construct: the protein concentration, 0.25 mg/ml (human liver microsomes, 15 pol, Lot. 210296, XenoTech); tissue XenoTech Lot; 210296; host or cells: human liver microsomes (pooled)
T2 sequence (P11712 whole entry): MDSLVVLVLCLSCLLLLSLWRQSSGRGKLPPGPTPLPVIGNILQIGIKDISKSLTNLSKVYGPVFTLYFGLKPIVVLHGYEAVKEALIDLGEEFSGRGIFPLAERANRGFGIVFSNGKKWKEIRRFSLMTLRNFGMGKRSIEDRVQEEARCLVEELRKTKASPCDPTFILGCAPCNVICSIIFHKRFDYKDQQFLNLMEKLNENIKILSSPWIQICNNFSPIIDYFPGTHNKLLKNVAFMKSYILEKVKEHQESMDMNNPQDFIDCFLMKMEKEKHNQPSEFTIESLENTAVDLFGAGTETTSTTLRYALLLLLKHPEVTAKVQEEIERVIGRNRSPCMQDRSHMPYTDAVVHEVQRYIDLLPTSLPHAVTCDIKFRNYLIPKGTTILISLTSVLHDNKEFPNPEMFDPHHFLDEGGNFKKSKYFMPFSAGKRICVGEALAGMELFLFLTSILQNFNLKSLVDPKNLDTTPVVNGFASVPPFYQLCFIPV
Description: The reaction condition is as below. A substrate, 5 μM Tolbutamide (14C labeled compound); the reaction time, 30 minutes; the reaction temperature, 37° C.; the protein concentration, 0.25 mg/ml (human liver microsomes, 15 pol, Lot. 210296, XenoTech).
To the HEPES Buffer (pH 7.4), is added the protein (human liver microsomes), a drug solution and a substrate with the composition as the above. NADPH, which is a coenzyme of the reaction, is added thereto to start the reaction. After reacting for the fixed hours, 2N hydrochloric acid solution is added thereto and the reaction is stopped by removing protein. The remaining substrate drug and the generating metabolite are extracted with chloroform. The solvent is removed and the residue is redissolved in methanol. This solution was spotted on TLC, developed with chloroform:methanol: acetic acid=90:10:1, contacted on the imaging plate for about 14-20 hours and analyzed by BAS2000. As to the generation activity of the metabolite, Tolbutamide 4-potition hydration body, the activity in case that the solvent dissolving a drug is added to the reaction assay is used as a control (100%). The residual activity (%) in case that the test drug solution is added to the reaction is calculated.

[1] = 24 hours, concentration showing 1/2 of maximum luciferase activity (Table 166)

| melting point [°C] | EC50 (human PPARδ (hPPARδ); 24 hours (Table 168)) [nM] | activity at 30 min (CYP2C9) [%] | EC50 (human PPARδ (hPPARδ); [1]) [nM] | SMILES |
| --- | --- | --- | --- | --- |
| 179.5 to 181.5 | 35 | 47 | – | Cc1cc(SCc2cc(-c3ccc(C(F)(F)F)cc3)on2)ccc1/C=C/C(=O)O [β-2-38] |
| 139 to 141 | – | – | 14 | Cc1c(CSc2ccc(-c3sccc3C(=O)O)cc2)noc1-c1ccc(C(F)(F)F)cc1 [β-5-1, 2-{4-[4-Methyl-5-(4-trifluoromethylphenyl)isoxazole-3-ylmethylsulfanil]phenyl}thiophene-3-carboxylic acid] |
| 191 to 194 | – | – | – | Cc1cc(C(=O)CCc2noc(-c3ccc(C(F)(F)F)cc3)c2C)ccc1OCC(=O)O [α-6-4-1, (2-Methyl-4-{3-[4-methyl-5-(4-trifluoromethylphenyl)-isoxazole-3-yl]-propionyl}-phenoxy)-acetic acid] |
| 105 to 107 | – | – | 1.5 | COCc1c(CSc2ccc(OCC(=O)O)c(C)c2)noc1-c1ccc(C(F)(F)F)cc1 [β-1-15] |
| 261 to 262.5 | – | – | – | Cc1c(COc2ccc(C=CC(=O)O)cc2F)noc1-c1ccc(C(F)(F)F)cc1 [β-2-15, 3-{3-Fluoro-4-[4-methyl-5-(4-trifluoromethylphenyl)isoxazole-3-ylmethoxy]phenyl}acrylic acid] |
| 133 to 134 | – | – | – | COC(=O)COc1ccc(C(=O)CCc2noc(-c3ccc(C(F)(F)F)cc3)c2C)cc1C [α-6-3-1, (2-Methyl-4-{3-[4-methyl-5-(4-trifluoromethylphenyl)-isoxazole-3-yl]-propionyl}-phenoxy)-acetic acid methyl ester] |
| 139 to 141 | – | – | 16 | Cc1c(CSc2ccc3c(ccn3CC(=O)O)c2)noc1-c1ccc(C(F)(F)F)cc1 [β-4-1, {5-[4-Methyl-5-(4-trifluoromethylphenyl)isoxazole-3-ylmethylsulfanil]indole-1-yl}acetic acid] |
| 105 to 107 | – | – | – | COCc1c(COc2ccc(OCC(=O)O)c(C)c2)noc1-c1ccc(C(F)(F)F)cc1 [α-5-1, {4-[4-Methoxymethyl-5-(4-trifluoromethylphenyl)-isoxazole-3-ylmethoxy]-2-methyl-phenoxy}-acetic acid] |
| 157 to 159 | – | – | 11 | Cc1cc(SCc2noc(-c3ccc(Cl)cc3)c2C)ccc1OCC(=O)O [β-1-8] |
| 203 to 204.5 | – | – | 9.5 | Cc1cc(SCc2noc(-c3ccc(C(F)(F)F)cc3)c2C)ccc1Cc1noc(=O)[nH]1 [α-7-3-1, 3-[2-methyl-4-[4-methyl-5-(4-trifluoromethylphenyl)isoxazole-3-ylmethylsulfanil]benzil]-4H-[1,2,4]oxadiazole-5-on] |
| 159 to 160 | – | – | – | Cc1c(COc2ccc3c(ccn3CC(=O)O)c2)noc1-c1ccc(C(F)(F)F)cc1 [β-3-1, {5-[4-Methyl-5-(4 trifluoromethylphenyl)isoxazole-3-ylmethoxy]indole-1-yl}acetic acid] |
| 129 to 131 | – | – | 9.9 | Cc1cc(SCc2noc(-c3ccc(C(F)(F)F)cc3)c2C)ccc1OCC(=O)O [β-1-3] |
